Measurements: paper PMC5681660, “Reduced hepatitis B and D viral entry using clinically applied drugs as novel inhibitors of the bile acid transporter NTCP” (Scientific Reports, 2017)
Structures can show the parent of a compound that is named as a salt.

Biological target: T1, human NTCP (Homo sapiens, UniProt Q14973)
T1 sequence (Q14973 1-349): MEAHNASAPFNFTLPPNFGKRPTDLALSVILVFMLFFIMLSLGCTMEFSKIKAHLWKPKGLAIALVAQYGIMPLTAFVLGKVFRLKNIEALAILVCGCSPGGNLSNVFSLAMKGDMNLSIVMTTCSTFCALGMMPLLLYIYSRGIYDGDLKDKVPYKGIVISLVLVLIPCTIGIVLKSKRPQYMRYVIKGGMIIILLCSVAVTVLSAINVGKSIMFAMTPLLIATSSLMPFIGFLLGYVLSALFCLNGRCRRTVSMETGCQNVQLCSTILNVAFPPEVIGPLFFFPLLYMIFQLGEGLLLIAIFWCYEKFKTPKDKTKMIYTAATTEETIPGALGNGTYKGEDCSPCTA
Assay: Screening taurocholate uptake assay (96-well, [14C]taurocholate, 10 µM drug)
Details: for B-score functional assay: screening taurocholate uptake, 10 µM drug

[1] = combined ranking of functional and binding screening assays
[2] = ranking over the functional and the binding screening assay

Row | SMILES | Ranking score [1] | B-score functional assay | Ranking score [2] | B-score functional assay (B-score)
1 | C=CCN1CCCC1CNC(=O)c1cc2[nH]nnc2cc1OC.Cl (stereo not shown) [Alizapride HCl] | 642.464 | 2.201 | – | –
2 | NC(=O)NC1NC(=O)NC1=O (stereo not shown) [Allantoin] | – | -2.549 | 134.967 | –
3 | Cc1[nH]cnc1CN1CCc2c(c3ccccc3n2C)C1=O [Alosetron hydrochloride] | 562.783 | -0.019 | – | –
4 | C=CCc1ccccc1OCC(O)CNC(C)C (stereo not shown) [Alprenolol hydrochloride] | 1166.46 | – | – | 2.549
5 | C=CC[C@]1(O)CC[C@H]2[C@@H]3CCC4=CC(=O)CCC4=C3C=C[C@@]21C [Altrenogest] | 607.028 | 0.332 | – | –
6 | CN(C)c1nc(N(C)C)nc(N(C)C)n1 [Altretamine] | 605.153 | -0.464 | – | –
7 | COC(c1ccccc1)(c1ccccc1)[C@H](Oc1nc(C)cc(C)n1)C(=O)O [Ambrisentan] | 629.311 | -0.389 | – | –
8 | CC(=O)OCC(=O)[C@@]12OC3(CCCC3)O[C@@H]1C[C@H]1[C@@H]3CCC4=CC(=O)C=C[C@]4(C)[C@@]3(F)[C@@H](O)C[C@@]12C [Amcinonide] | 530.494 | 0.343 | – | –
9 | Nc1c2ccccc2nc2ccccc12 [Aminacrine] | 608.609 | -0.079 | – | –
10 | Cn1c(=O)c2[nH]cnc2n(C)c1=O [Aminophylline] | 601.379 | -0.16 | – | –
11 | CCC(C)(C)c1ccc(CC(C)CN2C[C@@H](C)O[C@@H](C)C2)cc1 (stereo partly shown) [Amorolfine hydrochloride] | 533.183 | -0.84 | – | –
12 | Clc1ccc2c(c1)C(N1CCNCC1)=Nc1ccccc1O2 [Amoxapine] | 604.055 | 0.589 | – | –
13 | CC1(C)S[C@@H]2[C@H](NC(=O)[C@H](N)c3ccc(O)cc3)C(=O)N2[C@H]1C(=O)O [Amoxicillin] | – | -0.114 | 277.274 | –
14 | C[C@@H]1[C@H](O)[C@@H](C)/C=C/C=C/C=C/C=C/C=C/C=C/C=C/[C@H](O[C@@H]2O[C@H](C)[C@@H](O)[C@H](N)[C@@H]2O)C[C@@H]2O[C@](O)(C[C@@H](O)C[C@@H](O)[C@H](O)CC[C@@H](O)C[C@@H](O)CC(=O)O[C@H]1C)C[C@H](O)[C@H]2C(=O)O [Amphotericin B] | – | -7.097 | 61.0819 | –
15 | CC1(C)S[C@@H]2[C@H](NC(=O)[C@H](N)c3ccccc3)C(=O)N2[C@H]1C(=O)O [Ampicillin trihydrate] | – | -0.594 | 199.178 | –
16 | CCOC(=O)OC(C)OC1=C(C(=O)Nc2ccccn2)N(C)S(=O)(=O)c2ccccc21 (stereo not shown) [Ampiroxicam] | 519.584 | 0.098 | – | –
17 | CCCc1ncc(C[n+]2ccccc2C)c(N)n1 [Amprolium hydrochloride] | – | -0.209 | 254.142 | –
18 | CC(C)(C#N)c1cc(Cn2cncn2)cc(C(C)(C)C#N)c1 [Anastrozole] | 558.153 | 0.728 | – | –
19 | O=C1c2c(O)cccc2Cc2cccc(O)c21 [Anthralin] | – | 0.019 | 68.2788 | –
20 | CCCCCC[C@H]1C(=O)O[C@H](C)[C@H](NC(=O)c2cccc(NC=O)c2O)C(=O)O[C@@H](C)[C@@H]1OC(=O)CC(C)C [Antimycin A] | – | -8.175 | 15.6525 | –
21 | Cc1c(O)c(=O)n(-c2ccccc2)n1C [Antipyrine, 4-hydroxy] | – | -1.78 | 262.114 | –
22 | Cc1cc(=O)n(-c2ccccc2)n1C [Antipyrine] | – | -1.958 | 172.864 | –
23 | C[C@@H](O[C@H]1OCCN(Cc2n[nH]c(=O)[nH]2)[C@H]1c1ccc(F)cc1)c1cc(C(F)(F)F)cc(C(F)(F)F)c1 [Aprepitant] | – | -3.7 | 111.812 | –
24 | O=C1CCc2ccc(OCCCCN3CCN(c4cccc(Cl)c4Cl)CC3)cc2N1 [Aripiprazole] | 580.393 | 1.007 | – | –
25 | CN1CC2c3ccccc3Oc3ccc(Cl)cc3C2C1 (stereo not shown) [Asenapine maleate] | – | -0.488 | 127.491 | –
26 | COc1ccc(CCN2CCC(Nc3nc4ccccc4n3Cc3ccc(F)cc3)CC2)cc1 [Astemizole] | – | -0.026 | 231.853 | –
27 | CC(C)c1c(C(=O)Nc2ccccc2)c(-c2ccccc2)c(-c2ccc(F)cc2)n1CC[C@@H](O)C[C@@H](O)CC(=O)O [Atorvastatin] | – | -2.669 | 231.469 | –

Row | SMILES | Ranking score [1] | B-score functional assay | Ranking score [2] | B-score functional assay (B-score)
28 | CC[C@H](C)[C@H]1O[C@]2(C=C[C@@H]1C)C[C@@H]1C[C@@H](C/C=C(\C)[C@@H](O[C@H]3C[C@H](OC)[C@@H](O[C@H]4C[C@H](OC)[C@@H](O)[C@H](C)O4)[C@H](C)O3)[C@@H](C)/C=C/C=C3\CO[C@@H]4[C@H](O)C(C)=C[C@@H](C(=O)O1)[C@]34O)O2 [Avermectin B1a] | – | -1.314 | 51.7494 | –
29 | COc1ccc(C(=O)CC(=O)c2ccc(C(C)(C)C)cc2)cc1 [Avobenzone] | – | -0.955 | 206.26 | –
30 | OC(c1ccccc1)(c1ccccc1)C1CCNCC1 [Azacyclonol] | 525.026 | -0.041 | – | –
31 | CC1(C)S[C@@H]2[C@H](NC(=O)[C@H](NC(=O)N3CCNC3=O)c3ccccc3)C(=O)N2[C@H]1C(=O)O [Azlocillin sodium salt] | – | -0.407 | 129.337 | –
32 | CCOC(=O)OC(C)OC(=O)[C@@H]1N2C(=O)[C@@H](NC(=O)[C@H](N)c3ccccc3)[C@H]2SC1(C)C (stereo partly shown) [Bacampicillin hydrochloride] | 500.635 | -0.626 | – | –
33 | CN(C)C(=O)Oc1cc(OC(=O)N(C)C)cc(C(O)CNC(C)(C)C)c1.Cl (stereo not shown) [Bambuterol hydrochloride] | 562.701 | -0.006 | – | –
34 | CCC(=O)OCC(=O)[C@@]1(OC(=O)CC)[C@@H](C)C[C@H]2[C@@H]3CCC4=CC(=O)C=C[C@]4(C)[C@@]3(Cl)[C@@H](O)C[C@@]21C [Beclomethasone dipropionate] | – | -3.95 | 123.665 | –
35 | CCC1(C)CC(=O)NC(=O)C1 [Bemegride] | – | -2.979 | 76.1315 | –
36 | C/C(=C(\CCOP(=O)(O)O)SC(=O)c1ccccc1)N(C=O)Cc1cnc(C)nc1N [Benfotiamine] | 532.072 | -0.56 | – | –
37 | NC(CO)C(=O)NNCc1ccc(O)c(O)c1O (stereo not shown) [Benserazide hydrochloride] | 520.826 | -0.402 | – | –
38 | NC(=NCc1ccccc1)NC(=O)c1nc(Cl)c(N)nc1N [Benzamil hydrochloride] | 519.299 | -0.089 | – | –
39 | CCc1oc2ccccc2c1C(=O)c1cc(Br)c(O)c(Br)c1 [Benzbromarone] | – | -5.011 | 148.825 | –
40 | CCOC(=O)c1ccc(N)cc1 [Benzocaine] | – | -1.326 | 153.542 | –
41 | CN1[C@@H]2CC[C@H]1C[C@@H](OC(c1ccccc1)c1ccccc1)C2 [Benztropine mesylate] | 529.655 | -0.008 | – | –
42 | CN(C)CCCOc1nn(Cc2ccccc2)c2ccccc12 [Benzydamine hydrochloride] | 571.97 | 0.075 | – | –
43 | C/C=C(\C)C(=O)O[C@H]1[C@H](OC(C)=O)[C@@]2(CO)C(CC1(C)C)C1=CC[C@@H]3[C@@]4(C)CC[C@H](O[C@@H]5O[C@H](C(=O)O)[C@@H](O[C@@H]6O[C@H](CO)[C@@H](O)[C@H](O)[C@H]6O)[C@H](O)[C@H]5O[C@@H]5O[C@H](CO)[C@@H](O)[C@H](O)[C@H]5O)[C@H](CO)C4CC[C@@]3(C)[C@@]1(C)C[C@H]2O (stereo partly drawn) [Beta-Escin] | – | -8.059 | 8.485 | –
44 | CNCCc1ccccn1.CS(=O)(=O)O.CS(=O)(=O)O [Betahistine mesylate] | – | -5.129 | 145.348 | –
45 | CC(C)NCC(O)COc1ccc(CCOCC2CC2)cc1 (stereo not shown) [Betaxolol hydrochloride] | 583.493 | 0.038 | – | –
46 | CC(O)(CS(=O)(=O)c1ccc(F)cc1)C(=O)Nc1ccc(C#N)c(C(F)(F)F)c1 (stereo not shown) [Bicalutamide] | – | -0.361 | 258.616 | –
47 | c1ccc(-c2ccc(C(c3ccccc3)n3ccnc3)cc2)cc1 (stereo not shown) [Bifonazole] | – | -2.294 | 164.499 | –
48 | O=C(O)CCCC[C@@H]1SC[C@@H]2NC(=O)N[C@@H]21 [Biotin] | – | -2.274 | 66.9328 | –
49 | OC(CCN1CCCCC1)(c1ccccc1)C1CC2C=CC1C2 (stereo not shown) [Biperiden hydrochloride] | 526.369 | -0.229 | – | –
50 | CC(=O)Oc1ccc(C(c2ccc(OC(C)=O)cc2)c2ccccn2)cc1 [Bisacodyl] | – | -3.114 | 63 | –
51 | CC(C)NCC(O)COc1ccc(COCCOC(C)C)cc1 (stereo not shown) [Bisoprolol fumarate] | – | 0.023 | 263.481 | –
52 | CN(Cc1cc(Br)cc(Br)c1N)C1CCCCC1 [Bromhexine hydrochloride] | – | -0.767 | 149.492 | –
53 | CN(C)CCC(c1ccc(Br)cc1)c1ccccn1 (stereo not shown) [Brompheniramine maleate] | 520.776 | -0.661 | – | –
